Reference: patent publication US11564914B2, “Methods of treating bone loss” (THE REGENTS OF THE UNIVERSITY OF CALIFORNIA, priority 2016, dated 2023)

How the values were obtained:
sEH = molecular target: T1, sEH (Homo sapiens, UniProt P34913); test: testing as sEH inhibitors (method not given); format: biochemical
T1 sequence (P34913 1-555): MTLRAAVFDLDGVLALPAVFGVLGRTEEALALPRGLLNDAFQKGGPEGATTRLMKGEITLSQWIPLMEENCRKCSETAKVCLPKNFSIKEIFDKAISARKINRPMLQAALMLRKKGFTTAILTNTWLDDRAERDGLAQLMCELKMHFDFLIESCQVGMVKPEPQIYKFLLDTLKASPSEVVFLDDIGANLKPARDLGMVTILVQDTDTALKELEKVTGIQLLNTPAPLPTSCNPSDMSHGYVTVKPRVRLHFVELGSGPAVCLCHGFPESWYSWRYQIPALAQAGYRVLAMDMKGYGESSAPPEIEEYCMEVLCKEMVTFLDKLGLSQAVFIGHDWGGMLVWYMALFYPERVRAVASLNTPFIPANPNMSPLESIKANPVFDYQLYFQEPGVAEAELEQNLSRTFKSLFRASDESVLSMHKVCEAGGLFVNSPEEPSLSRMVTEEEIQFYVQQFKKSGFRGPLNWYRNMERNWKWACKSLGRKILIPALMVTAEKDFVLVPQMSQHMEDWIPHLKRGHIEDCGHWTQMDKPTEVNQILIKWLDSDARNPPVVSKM

[1] = metabolic stability (method not given)
[2] = blood concentration of TPPU by LC-MS; format: in vivo; conditions: mouse, whole blood; mice, 24 h after last oral administration, after 15 days at 1 mg/kg/day
Experimental: The samples were taken at 24 h after the last oral gavage treatment. […] The results are expressed as mean±SD from six mice per group.
Animals orally received 1×10^9 CFU/ml of a diluted culture of freshly grown A. actinomycetemcomitans JP2, in a volume of 100 μl PBS containing 2% carboxymethylcellulose. The solution was placed into the oral cavity with a micropipette, and the procedure was repeated at 48 and 96 h after the first inoculation. Treatment with TPPU and EETs was initiated after the third inoculation of bacteria. The inhibitor was dissolved in PEG400 and administered at 1 mg/kg/day by oral gavage. For the treatment with EETs, we attempted to apply viscous solution of mixture of EET-methyl ester regioisomers dissolved in PEG400 to the gum tissue using a fine pipette at a dose of 1 μg/kg/day. The mice received the entire EET dose. This was done immediately before the oral gavage with both groups of mice receiving TPPU or mice receiving vehicle alone. Because EETs are unstable in stomach acid we assume exposure is largely topical or buccal. All treatments continued for 15 days. […] The negative control group consisted of uninfected mice (sham-infected), the positive control group was infected and received the vehicle only. One day after the treatment period (16th day), animals were sacrificed by cardiac puncture after anesthesia with xylazine/ketamine. […]

SMILES	activity as inhibitor of sEH (sEH)	metabolic stability [1]	concentration at 24 h [2]
CCCCCCCCCCCCNC(=O)NC12CC3CC(CC(C3)C1)C2 [ADU, N-Adamantyl-N′-dodecyl urea]	particularly high activity	metabolically stable	–
CCC(=O)N1CCC(NC(=O)Nc2ccc(OC(F)(F)F)cc2)CC1 [TPPU, 1-trifluoromethoxyphenyl-3-(1-propionylpiperidin-4-yl) urea]	–	–	> 8000 ng/mL
